Reference: the NIST ThermoML archive (doi:10.1016/j.fluid.2013.06.050)
± gives the expanded uncertainty stated by the source.

Columns and labels:
[1] = xn = mol fraction of the nth substance listed; settings: 298.15 K, 101 kPa, Liquid
[2] = refractive index (Na D-line) (dimensionless); xn = mol fraction of the nth substance listed; settings: 298.15 K, 101 kPa, Liquid, Standard Abbe refractometry
[3] = Vibrating tube method, x1 = 0.2
[4] = Vibrating tube method, x1 = 0.25
[5] = Vibrating tube method, x1 = 0.16

CCN(CC)CCO.Cl [2-(diethylamino)ethanol hydrochloride] + OCCO
mass density [1, 3]: 1103.7 ± 12 kg/m3
mass density [1, 4]: 1101.8 ± 12 kg/m3
mass density ([1]; Vibrating tube method, x1 = 0.28): 1100.6 ± 12 kg/m3
refractive index ([2]; x1 = 0.2): 1.4574 ± 0.0011
refractive index ([2]; x1 = 0.25): 1.462 ± 0.0011
refractive index ([2]; x1 = 0.28): 1.465 ± 0.0011

C[N+](C)(C)CCO.[Cl-] [choline chloride] + OCC(O)CO
mass density ([1]; vibrating tube, x1 = 0.25): 1203.5 ± 12 kg/m3
mass density ([1]; vibrating tube, x1 = 0.34): 1192.4 ± 12 kg/m3
mass density ([1]; vibrating tube, x1 = 0.5): 1162.2 ± 12 kg/m3
refractive index ([2]; x1 = 0.25): 1.4818 ± 0.0011
refractive index ([2]; x1 = 0.34): 1.4852 ± 0.0011
refractive index ([2]; x1 = 0.5): 1.491 ± 0.0011

CCN(CC)CCO.Cl [2-(diethylamino)ethanol hydrochloride] + OCC(O)CO
mass density ([1]; vibrating tube, x1 = 0.2): 1220.4 ± 12 kg/m3
mass density ([1]; vibrating tube, x1 = 0.25): 1205.7 ± 12 kg/m3
mass density ([1]; vibrating tube, x1 = 0.34): 1183.6 ± 12 kg/m3
refractive index ([2]; x2 = 0.2): 1.4812 ± 0.0011
refractive index ([2]; x2 = 0.25): 1.4825 ± 0.0011
refractive index ([2]; x2 = 0.34): 1.4853 ± 0.0011

C[P+](c1ccccc1)(c1ccccc1)c1ccccc1.[Br-] [methyltriphenylphosphonium bromide] + OCCOCCOCCO
mass density [1, 5]: 1186 ± 12 kg/m3
mass density [1, 3]: 1199.2 ± 12 kg/m3
mass density [1, 4]: 1216.4 ± 12 kg/m3
refractive index ([2]; x1 = 0.16): 1.5178 ± 0.0011
refractive index ([2]; x1 = 0.2): 1.5263 ± 0.0011
refractive index ([2]; x1 = 0.25): 1.5417 ± 0.0011

C[P+](c1ccccc1)(c1ccccc1)c1ccccc1.[Br-] [methyltriphenylphosphonium bromide] + OCCO
mass density [1, 5]: 1220.2 ± 12 kg/m3
mass density [1, 3]: 1233 ± 12 kg/m3
mass density [1, 4]: 1250.4 ± 12 kg/m3
refractive index ([2]; x1 = 0.16): 1.5398 ± 0.0011
refractive index ([2]; x1 = 0.2): 1.553 ± 0.0011
refractive index ([2]; x1 = 0.25): 1.5678 ± 0.0011

C[N+](C)(C)CCO.[Cl-] [choline chloride] + OCCO
mass density ([1]; vibrating tube, x1 = 0.28): 1117.3 ± 12 kg/m3
mass density ([1]; vibrating tube, x1 = 0.34): 1117.7 ± 12 kg/m3
mass density ([1]; vibrating tube, x1 = 0.36): 1118.4 ± 12 kg/m3
refractive index ([2]; x1 = 0.28): 1.4611 ± 0.0011
refractive index ([2]; x1 = 0.34): 1.465 ± 0.0011
refractive index ([2]; x1 = 0.36): 1.4678 ± 0.0011

C[P+](c1ccccc1)(c1ccccc1)c1ccccc1.[Br-] [methyltriphenylphosphonium bromide] + OCC(O)CO
mass density [1, 3]: 1289.3 ± 12 kg/m3
mass density [1, 4]: 1298 ± 12 kg/m3
mass density ([1]; Vibrating tube method, x1 = 0.34): 1307.1 ± 12 kg/m3
refractive index ([2]; x1 = 0.2): 1.5597 ± 0.0011
refractive index ([2]; x1 = 0.25): 1.5715 ± 0.0011
refractive index ([2]; x1 = 0.34): 1.5917 ± 0.0011

OCCCCO [1,4-butanediol] + C[N+](C)(C)CCO.[Cl-]
mass density ([1]; vibrating tube, x2 = 0.25): 1061 ± 12 kg/m3
mass density ([1]; vibrating tube, x2 = 0.28): 1067 ± 12 kg/m3
mass density ([1]; vibrating tube, x2 = 0.34): 1073.1 ± 12 kg/m3
refractive index ([2]; x2 = 0.25): 1.4656 ± 0.0011
refractive index ([2]; x2 = 0.28): 1.468 ± 0.0011
refractive index ([2]; x2 = 0.34): 1.4718 ± 0.0011
